Data: US11091486B2, “Process for the preparation of pyrazolo[1,5-a]pyrimidines and salts thereof” (Array BioPharma Inc., priority 2016, dated 2021)
≈ marks a conversion by molar mass, not a printed value. Entries after “also recorded” stand apart in the source; their conditions may differ. Like-named read-outs stand apart in the source and are kept apart here.

Legend:
Type in all cases: physicochemical
[1] = Dynamic vapor sorption (DVS); conditions: for Hygroscopicity, mass uptake by DVS: at 90% RH; for Crystalline form by XRPD after exposure to DVS humidity conditions: post-DVS XRPD
Experimental: Approximately, 10 mg of sample was placed into a mesh vapor sorption balance pan and loaded into a DVS-1 dynamic vapor sorption balance by Surface Measurement Systems. The sample was subjected to a ramping profile from 40-90% relative humidity (RH) at 10% increments, maintaining the sample at each step until a stable weight had been achieved (99.5% step completion). After completion of the sorption cycle, the sample was dried using the same procedure to 0% RH and then a second sorption cycle back to 40% RH. The weight change during the sorption/desorption cycles were plotted, allowing for the hygroscopic nature of the sample to be determined. XRPD analysis was then carried out on any solid retained.

[2] = Thermodynamic solubility of prepared salts
Experimental: Thermodynamic solubility studies were carried out as follows: 10 mg of prepared salts were suspended in pH 1, 4.5, 6.8 and un-buffered water (300 μL). The pH of the slurries was measured and adjusted accordingly using either 0.2M HCl solution or 0.2M sodium hydroxide solution. The slurries were agitated for 24 hours at ambient temperature using an incubator shaker.

[3] = 1-week stability tests (40° C./75% RH, 80° C., ambient light), XRPD and UPLC
Text: Compound 1 (Form I) was subjected to various different environmental conditions to assess stability.

[4] = Hydration screen in acetone/water mixtures; conditions: 24 hr
Experimental: Hydration screen was carried out as follows: 10 mg of prepared salts were suspended in several acetone/water mixtures of various water activities (low: aw=0.281, medium: aw=0.776 and high: aw=0.919) and agitated at ambient temperatures for 24 hr. Any recovered solids were submitted for XRPD analysis to determine any changes to form.

[5] = Salt disproportionation studies; conditions: deionized water, 24 h at ambient temperature
Experimental: Salt disproportionation studies were carried out as follows: 20 mg of prepared salts were weighed into a vial and 0.5 mL of deionized water was added. The samples were then agitated for 24 h at ambient temperature. The pH of the samples was taken pre- and post-agitation. Any solids recovered were submitted for XRPD analysis to determine any changes to form.

[6] = Gravimetric vapor sorption (GVS); conditions: for Crystalline form by XRPD after exposure to GVS humidity conditions: post-GVS XRPD
Experimental: Approximately 10-20 mg of sample was placed into a mesh vapor sorption balance pan and loaded into an IGASorp Moisture Sorption Analyzer balance by Hiden Analytical. […] After completion of the sorption cycle, the sample was dried using the same procedure to 0% RH, and finally taken back to the starting point of 40% RH. The weight change during the sorption/desorption cycles were plotted, allowing for the hygroscopic nature of the sample to be determined.

[7] = Approximate solvent solubility of amorphous Compound 1 free base by solvent addition (Example 1); conditions: for solubility: organic solvent or mixture, thermodynamic from solid, read-out: Approx. Solubility
Experimental: A solid Compound 1 was obtained as follows. A […] of solution containing about 330 mg of Compound 1 in warm 1,4-dioxane was divided between 33, 2 mL glass vials (1.5 mL in each). The solutions were frozen and freeze-dried by lyophilization overnight. The resulting material was then analyzed by XRPD to confirm mostly amorphous material.
Approximately 10 mg of amorphous Compound 1 was produced in 32×2 mL glass vials from freeze drying and 100 μL of the appropriate solvent system was added to the appropriate vial. Between each addition, the mixture was checked for dissolution and if no dissolution was apparent, the mixture was heated to about 40° C. and checked again. This procedure was continued until dissolution was observed or until 2 mL had been added (to the compound concentration of <5 mg/mL).

[8] = medium water activity (aw=0.776)

Compound: C[C@@H]1CCc2ncc(F)cc2[C@H]2CCCN2c2ccn3ncc(c3n2)C(=O)N1.O=S(=O)(O)c1ccccc1 [Compound 1 besylate]
- Hygroscopicity, mass uptake by DVS [1]: about 0.7%
- Crystalline form by XRPD after exposure to DVS humidity conditions [1]: no changes in crystalline form
- Thermodynamic solubility in words ([2]; pH 1): highly soluble
- Solid recovered from thermodynamic solubility slurry (XRPD) ([2]; pH 4.5): an unknown form
- Thermodynamic solubility in words ([2]; pH 4.5): moderately soluble
- Solid recovered from thermodynamic solubility slurry (XRPD) ([2]; pH 6.8): poorly crystalline free base
- Thermodynamic solubility in words ([2]; pH 6.8): low solubility
- Solid recovered from thermodynamic solubility slurry (XRPD) ([2]; unbuffered water): poorly crystalline free base
- Thermodynamic solubility in words ([2]; unbuffered water): moderately soluble
- 1-week stability test: change to form (XRPD) ([3]; 40° C./75% RH): appears to be a mixture of besylate salt and something else
- 1-week stability test: change in purity (UPLC) ([3]; 80° C.): no change to purity
- 1-week stability test: change to form (XRPD) ([3]; 80° C.): no change to form
- 1-week stability test: change in purity (UPLC) ([3]; ambient light): no change to purity
- 1-week stability test: change to form (XRPD) ([3]; ambient light): no change to form
- Hydration study: recovered solid by XRPD ([4]; high water activity (aw=0.919)): poorly crystalline besylate salt
- Hydration study: recovered solid by XRPD ([4]; low water activity (aw=0.281)): poorly crystalline besylate salt
- Salt disproportionation: recovered material by XRPD [5]: poorly crystalline free base

Compound: C[C@@H]1CCc2ncc(F)cc2[C@H]2CCCN2c2ccn3ncc(c3n2)C(=O)N1.O=C(O)CC(O)(CC(=O)O)C(=O)O [Compound 1 citrate]
- Crystalline form by XRPD after exposure to DVS humidity conditions [1]: no changes in crystalline form
- Solid recovered from thermodynamic solubility slurry (XRPD) ([2]; pH 1): poorly crystalline solids
- Thermodynamic solubility in words ([2]; pH 1): high solubility
- Solid recovered from thermodynamic solubility slurry (XRPD) ([2]; pH 4.5): Compound 1 citrate
- Thermodynamic solubility in words ([2]; pH 4.5): lower solubility
- Solid recovered from thermodynamic solubility slurry (XRPD) ([2]; pH 6.8): poorly crystalline free base
- Thermodynamic solubility in words ([2]; pH 6.8): lower solubility
- Solid recovered from thermodynamic solubility slurry (XRPD) ([2]; unbuffered water): Compound 1 citrate
- Thermodynamic solubility in words ([2]; unbuffered water): highly soluble
- 1-week stability test: change in purity (UPLC) ([3]; 40° C./75% RH): no change to purity
- 1-week stability test: change to form (XRPD) ([3]; 40° C./75% RH): no change to form
- 1-week stability test: change in purity (UPLC) ([3]; 80° C.): no change to purity
- 1-week stability test: change to form (XRPD) ([3]; 80° C.): no change to form
- 1-week stability test: change in purity (UPLC) ([3]; ambient light): no change to purity
- 1-week stability test: change to form (XRPD) ([3]; ambient light): no change to form
- Hydration study: recovered solid by XRPD ([4]; high water activity (aw=0.919)): poorly crystalline citrate salt
- Hydration study: recovered solid by XRPD ([4]; low water activity (aw=0.281)): poorly crystalline citrate salt
- Hydration study: recovered solid by XRPD [4, 8]: unknown form
- Salt disproportionation: recovered material by XRPD [5]: poorly crystalline citrate salt

Compound: CS(=O)(=O)O.C[C@@H]1CCc2ncc(F)cc2[C@H]2CCCN2c2ccn3ncc(c3n2)C(=O)N1 [Compound 1 mesylate]
- Thermodynamic solubility in words ([2]; pH 1): moderately soluble
- Solid recovered from thermodynamic solubility slurry (XRPD) ([2]; pH 4.5): mesylate salt
- Thermodynamic solubility in words ([2]; pH 4.5): moderately soluble
- Solid recovered from thermodynamic solubility slurry (XRPD) ([2]; pH 6.8): free base
- Thermodynamic solubility in words ([2]; pH 6.8): low solubility
- Solid recovered from thermodynamic solubility slurry (XRPD) ([2]; unbuffered water): free base
- Thermodynamic solubility in words ([2]; unbuffered water): moderately soluble
- 1-week stability test: change in purity (UPLC) ([3]; 40° C./75% RH): no change to purity
- 1-week stability test: change in purity (UPLC) ([3]; 80° C.): no change to purity
- 1-week stability test: change in purity (UPLC) ([3]; ambient light): no change to purity
- Hydration study: recovered solid by XRPD ([4]; high water activity (aw=0.919)): free base
- Hydration study: recovered solid by XRPD ([4]; low water activity (aw=0.281)): a mixture of free base and salt
- Hydration study: recovered solid by XRPD [4, 8]: mesylate salt
- Hygroscopicity, mass uptake by GVS ([6]; at 90% RH): about 32%
- Crystalline form by XRPD after exposure to GVS humidity conditions [6]: desolvate and become the mesylate form seen in the salt screen
- Salt disproportionation: recovered material by XRPD [5]: no change to form

Compound: C[C@@H]1CCc2ncc(F)cc2[C@H]2CCCN2c2ccn3ncc(c3n2)C(=O)N1 [Compound 1, (6R,15R)-9-fluoro-15-methyl-2,11,16,20,21,24-hexaazapentacyclo[16.5.2.0^2,6.0^7,12.0^21,25]pentacosa-1(24),7,9,11,18(25),19,22-heptaen-17-one]
- solubility ([7]; 1,2-Dimethoxyethane): 8.3 mg/mL (≈ 21.8 mM)
- solubility ([7]; 1,4-Dioxane): 8.3 mg/mL (≈ 21.8 mM)
- solubility ([7]; 1-butanol): 17 mg/mL (≈ 44.7 mM)
- solubility ([7]; 2-Ethoxy ethanol): 50 mg/mL (≈ 131 mM)
- solubility ([7]; 2-Propanol): 14.3 mg/mL (≈ 37.6 mM)
- solubility ([7]; 2-butanone): 11.1 mg/mL (≈ 29.2 mM)
- solubility ([7]; Acetone): 11.1 mg/mL (≈ 29.2 mM)
- solubility ([7]; Acetonitrile): 12.5 mg/mL (≈ 32.9 mM)
- solubility ([7]; Dimethylsulfoxide): 50 mg/mL (≈ 131 mM)
- solubility ([7]; Ethanol): 20 mg/mL (≈ 52.6 mM)
- solubility ([7]; Methanol): 50 mg/mL (≈ 131 mM)
- solubility ([7]; Methylisobutyl ketone): 6.25 mg/mL (≈ 16.4 mM)
- solubility ([7]; Tetrahydrofuran, 40 °C): 20 mg/mL (≈ 52.6 mM)
- solubility ([7]; anisole): 11.1 mg/mL (≈ 29.2 mM)
- Solvent solubility in words ([7]; non-polar solvents such as toluene and 1,4-dioxane): low solubility
- solubility ([7]; Diglyme (bis(2-methoxyethyl ether))): 8.3 mg/mL (≈ 21.8 mM)
- Solvent solubility in words ([7]; polar aprotic solvents such as acetone, ethyl acetate and acetonitrile): medium solubility
- Solvent solubility in words ([7]; polar solvents such as DMSO, DMF and protic solvents such as methanol): high solubility
- Hygroscopicity, mass uptake by DVS [1]: about 0.7%
- Crystalline form by XRPD after exposure to DVS humidity conditions [1]: no change in crystalline form
- 1-week stability test: change in purity (UPLC) ([3]; 40° C./75% RH): no change in purity
- 1-week stability test: change to form (XRPD) ([3]; 40° C./75% RH): no change to form
- 1-week stability test: change in purity (UPLC) ([3]; 80° C.): no change in purity
- 1-week stability test: change to form (XRPD) ([3]; 80° C.): no change to form
- Average purity after 1-week stability test (UPLC) ([3]; 80° C. test): 99.3%
- 1-week stability test: change in purity (UPLC) ([3]; ambient light): no change in purity
- 1-week stability test: change to form (XRPD) ([3]; ambient light): no change to form
- Average purity after 1-week stability test (UPLC) ([3]; ambient light test): 99.2%
- Average purity after 1-week stability test (UPLC) ([3]; relative humidity test (40° C./75% RH)): 99.2%
- Crystalline form by XRPD after exposure to GVS humidity conditions [6]: no changes to form or crystallinity; also recorded: no changes in crystalline form
